Key:
[1] = biological target: T1, 11-beta-hydroxysteroid dehydrogenase 1 (Homo sapiens, UniProt P28845); assay: Inhibition of human 11beta-HSD1 expressed in HEK293 cell lysates using radiolabeled cortisone as substrate incubated for 10 mins by scintillation counting method
Target sequence in this assay (P28845 whole entry): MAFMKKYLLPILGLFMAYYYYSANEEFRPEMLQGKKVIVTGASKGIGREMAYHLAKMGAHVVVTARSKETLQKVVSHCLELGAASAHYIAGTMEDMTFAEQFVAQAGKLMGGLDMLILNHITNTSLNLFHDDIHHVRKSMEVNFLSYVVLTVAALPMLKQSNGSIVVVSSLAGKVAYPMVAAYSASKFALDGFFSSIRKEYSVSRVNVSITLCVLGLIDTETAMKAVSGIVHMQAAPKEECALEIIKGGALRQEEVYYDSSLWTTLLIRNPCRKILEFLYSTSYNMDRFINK

[2] = biological target: T1, 11-beta-hydroxysteroid dehydrogenase 1; assay: Inhibition of 11beta-HSD1 in human skin assessed as reversal of cortisone-mediated decrease in dermal total collagen content at 200 uM by picrosirius red histochemical staining based assay
Target sequence in this assay (P28845 whole entry, looked up): as the sequence (P28845 whole entry) above

[3] = biological target: T1, 11-beta-hydroxysteroid dehydrogenase 1; assay: Inhibition of 11beta-HSD1 in human skin assessed as reversal of cortisone-mediated decrease in dermal total collagen content by picrosirius red histochemical staining based assay
Target sequence in this assay (P28845 whole entry, looked up): as the sequence (P28845 whole entry) above

[4] = biological target: T2, 11-beta-hydroxysteroid dehydrogenase type 2 (Homo sapiens) (UniProt P80365); assay: Inhibition of human 11beta-HSD2 expressed in HEK293 cell lysates assessed as remaining enzyme activity at 1 uM using radiolabeled cortisol as substrate incubated for 10 mins in presence of NAD+ by scintillation counting method relative to control; values are per cent of control
T2 sequence (whole entry): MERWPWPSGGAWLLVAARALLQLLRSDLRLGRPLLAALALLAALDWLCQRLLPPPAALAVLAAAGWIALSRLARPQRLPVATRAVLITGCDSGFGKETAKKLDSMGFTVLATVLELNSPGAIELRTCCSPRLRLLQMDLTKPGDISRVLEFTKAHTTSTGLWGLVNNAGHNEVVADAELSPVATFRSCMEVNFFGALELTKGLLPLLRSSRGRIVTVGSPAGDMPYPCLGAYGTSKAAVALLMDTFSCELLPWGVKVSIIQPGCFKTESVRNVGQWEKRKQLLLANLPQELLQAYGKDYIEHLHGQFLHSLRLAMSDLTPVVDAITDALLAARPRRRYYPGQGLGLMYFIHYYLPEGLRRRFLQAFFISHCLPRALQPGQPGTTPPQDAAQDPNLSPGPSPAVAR

[5] = biological target: T3, 17-beta-hydroxysteroid dehydrogenase type 2 (Homo sapiens) (UniProt P37059); assay: Inhibition of human 17beta-HSD2 expressed in HEK293 cell lysates assessed as remaining enzyme activity at 1 uM using radiolabeled estradiol as substrate incubated for 10 mins by scintillation counting method relative to control; values are per cent of control
T3 sequence (whole entry): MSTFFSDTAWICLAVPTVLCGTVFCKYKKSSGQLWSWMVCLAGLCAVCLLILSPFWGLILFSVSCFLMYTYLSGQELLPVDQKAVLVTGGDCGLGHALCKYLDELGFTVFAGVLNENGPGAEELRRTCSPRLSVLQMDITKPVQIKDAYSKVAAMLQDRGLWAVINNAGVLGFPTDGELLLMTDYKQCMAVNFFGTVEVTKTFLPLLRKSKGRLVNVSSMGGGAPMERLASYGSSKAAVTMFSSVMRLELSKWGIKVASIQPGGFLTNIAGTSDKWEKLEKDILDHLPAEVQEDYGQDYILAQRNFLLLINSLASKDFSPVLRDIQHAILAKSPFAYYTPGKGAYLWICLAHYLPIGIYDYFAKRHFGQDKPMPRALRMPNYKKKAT

[6] = biological target: T1, 11-beta-hydroxysteroid dehydrogenase 1; assay: Inhibition of 11beta-HSD1 in human primary keratinocytes assessed as reduction in conversion of […] incubated for 48 hrs by enzyme immunoassay; assay type: cell-based
Target sequence in this assay (P28845 whole entry, looked up): as the sequence (P28845 whole entry) above

[7] = biological target: T4, 17-beta-hydroxysteroid dehydrogenase type 1 (Homo sapiens) (UniProt P14061); assay: Inhibition of human 17beta-HSD1 expressed in HEK293 cell lysates assessed as remaining enzyme activity at 1 uM using radiolabeled estrone as substrate incubated for 10 mins by scintillation counting method relative to control; values are per cent of control
T4 sequence (whole entry): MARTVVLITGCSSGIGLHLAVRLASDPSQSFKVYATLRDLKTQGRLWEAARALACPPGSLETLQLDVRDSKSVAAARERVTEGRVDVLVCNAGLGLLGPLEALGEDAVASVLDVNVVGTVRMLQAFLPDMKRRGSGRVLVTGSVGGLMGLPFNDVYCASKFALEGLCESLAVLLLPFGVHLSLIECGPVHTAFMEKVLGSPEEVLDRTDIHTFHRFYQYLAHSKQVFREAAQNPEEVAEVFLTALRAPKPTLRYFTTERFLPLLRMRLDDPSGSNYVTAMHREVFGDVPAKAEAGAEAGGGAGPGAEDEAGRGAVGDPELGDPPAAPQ

[8] = biological target: T1, 11-beta-hydroxysteroid dehydrogenase 1; assay: Inhibition of 11beta-HSD1 in human skin assessed as reversal of cortisone-mediated decrease in dermal total collagen content at 10 to 100 uM by picrosirius red histochemical staining based assay
Target sequence in this assay (P28845 whole entry, looked up): as the sequence (P28845 whole entry) above

IC50 [1] [nM] | inhibition [2] [%] | inhibition [3] | residual activity [4] [%] | residual activity [5] [%] | inhibition [6] | residual activity [7] [%] | inhibition [8] [%] | Compound
197 | 100 | Dose-dependent effect | > 90 | > 90 | Dose-dependent effect | > 90 | 18 | CC(=O)N[C@@H](Cc1ccc(C#N)cc1)C(=O)N1CCC[C@@H]1C(=O)NC1C2CC3CC(C2)CC1C3 (stereo partly drawn)
373 |  |  | > 90 | > 90 | Dose-dependent effect | > 90 |  | CCOc1ccc(C[C@H](N)C(=O)N2CCC[C@@H]2C(=O)NC2C3CC4CC(C3)CC2C4)cc1 (stereo partly drawn)
266 |  |  | > 90 | > 90 | Dose-dependent effect | > 90 |  | CC(=O)N[C@@H](Cc1ccc(F)cc1)C(=O)N1CCC[C@@H]1C(=O)NC1C2CC3CC(C2)CC1C3 (stereo partly drawn)

Reference: ChEMBL document CHEMBL4152366, “Design, synthesis, and biological evaluation of novel selective peptide inhibitors of 11β-hydroxysteroid dehydrogenase 1” (Bioorg Med Chem, 2018)
